Source: US20070049564A1 (Wyeth, priority 2005, published 2007)
Values after ≈ are worked out from the molar mass of the structure shown. Like-named read-outs stand apart in the source and are kept apart here.

Assays:
[1] = system: E. faecalis GC 4555; test: MIC, broth microdilution; conditions: Enterococcus faecalis
[2] = system: E. faecalis GC 2265; test: MIC, broth microdilution; conditions: Enterococcus faecalis
[3] = system: E. coli GC 2203; test: MIC, broth microdilution; conditions: Escherichia coli
[4] = system: E. coli GC 4560; test: MIC, broth microdilution; conditions: Escherichia coli
[5] = system: S. aureus GC 4536; test: MIC, broth microdilution; conditions: Staphylococcus aureus
[6] = system: E. coli GC 2271; test: MIC, broth microdilution; conditions: Escherichia coli
[7] = system: S. agalactiae GC 4564; test: MIC, broth microdilution; conditions: Streptococcus agalactiae
[8] = system: E. coli GC 2236; test: MIC, broth microdilution; conditions: Escherichia coli
[9] = system: E. coli GC 2233; test: MIC, broth microdilution; conditions: Escherichia coli
[10] = system: P. aeruginosa GC 2214; test: MIC, broth microdilution; conditions: Pseudomonas aeruginosa
[11] = system: E. coli GC 6465; test: MIC, broth microdilution; conditions: Escherichia coli
[12] = system: E. coli; test: Range of MIC for E. coli strains; conditions: Escherichia coli
[13] = system: S. aureus GC 6467; test: MIC, broth microdilution; conditions: Staphylococcus aureus
[14] = system: E. coli GC 1073; test: MIC, broth microdilution; conditions: Escherichia coli
[15] = system: Staph.; test: Range of MIC for Staph. strains, including MRSA; conditions: Staphylococcus aureus
[16] = system: S. aureus GC 6469; test: MIC, broth microdilution; conditions: Staphylococcus aureus
[17] = system: E. coli GC 4559; test: MIC, broth microdilution; conditions: Escherichia coli
[18] = system: E. coli GC 2270; test: MIC, broth microdilution; conditions: Escherichia coli
[19] = system: E. faecalis GC 2242; test: MIC, broth microdilution; conditions: Enterococcus faecalis
[20] = system: E. coli GC 2235; test: MIC, broth microdilution; conditions: Escherichia coli

SMILES: CN(C)c1cc(NC(=O)CN(C(=O)OCOC(=O)c2ccc(F)cc2)C(C)(C)C)c(O)c2c1C[C@H]1C[C@H]3[C@H](N(C)C)C(O)=C(C(N)=O)C(=O)[C@@]3(O)C(O)=C1C2=O [Example 52, ({[(2-{[(5aR,6aS,7S,10aS)-9-(aminocarbonyl)-4,7-bis(dimethylamino)-1,8,10a,11-tetrahydroxy-10,12-dioxo-5,5a,6,6a,7,10,10a,12-octahydrotetracen-2-yl]amino}-2-oxoethyl)(tert-butyl)amino]carbonyl}oxy)methyl 4-fluorobenzoate]
- MIC ([1]; GC4555, read-out: MINIMAL INHIBITORY CONCENTRATION MIC, Human Serum): 2 µg/mL (≈ 2.56 µM)
- MIC ([1]; GC4555, read-out: MINIMAL INHIBITORY CONCENTRATION MIC, Mouse Serum): 0.5 µg/mL (≈ 0.64 µM)
- MIC ([1]; GC4555, read-out: MINIMAL INHIBITORY CONCENTRATION MIC, Water): 4 µg/mL (≈ 5.12 µM)
- MIC ([2]; GC2265, read-out: MINIMAL INHIBITORY CONCENTRATION MIC, Human Serum): 4 µg/mL (≈ 5.12 µM)
- MIC ([2]; GC2265, read-out: MINIMAL INHIBITORY CONCENTRATION MIC, Mouse Serum): 1 µg/mL (≈ 1.28 µM)
- MIC ([2]; GC2265, read-out: MINIMAL INHIBITORY CONCENTRATION MIC, Water): 4 µg/mL (≈ 5.12 µM)
- MIC ([3]; GC2203, read-out: MINIMAL INHIBITORY CONCENTRATION MIC, Human Serum): 8 µg/mL (≈ 10.2 µM)
- MIC ([3]; GC2203, read-out: MINIMAL INHIBITORY CONCENTRATION MIC, Mouse Serum): 0.5 µg/mL (≈ 0.64 µM)
- MIC ([3]; GC2203, read-out: MINIMAL INHIBITORY CONCENTRATION MIC, Water): 8 µg/mL (≈ 10.2 µM)
- MIC ([4]; GC4560, read-out: MINIMAL INHIBITORY CONCENTRATION MIC, Human Serum): 2 µg/mL (≈ 2.56 µM)
- MIC ([4]; GC4560, read-out: MINIMAL INHIBITORY CONCENTRATION MIC, Mouse Serum): 0.25 µg/mL (≈ 0.32 µM)
- MIC ([4]; GC4560, read-out: MINIMAL INHIBITORY CONCENTRATION MIC, Water): 2 µg/mL (≈ 2.56 µM)
- MIC ([5]; GC4536, read-out: MINIMAL INHIBITORY CONCENTRATION MIC, Human Serum): 0.5 µg/mL (≈ 0.64 µM)
- MIC ([5]; GC4536, read-out: MINIMAL INHIBITORY CONCENTRATION MIC, Mouse Serum): 0.5 µg/mL (≈ 0.64 µM)
- MIC ([5]; GC4536, read-out: MINIMAL INHIBITORY CONCENTRATION MIC, Water): 2 µg/mL (≈ 2.56 µM)
- MIC ([6]; GC2271, read-out: MINIMAL INHIBITORY CONCENTRATION MIC, Human Serum): 4 µg/mL (≈ 5.12 µM)
- MIC ([6]; GC2271, read-out: MINIMAL INHIBITORY CONCENTRATION MIC, Mouse Serum): 0.5 µg/mL (≈ 0.64 µM)
- MIC ([6]; GC2271, read-out: MINIMAL INHIBITORY CONCENTRATION MIC, Water): 4 µg/mL (≈ 5.12 µM)
- MIC ([7]; GC4564, read-out: MINIMAL INHIBITORY CONCENTRATION MIC, Human Serum): 0.5 µg/mL (≈ 0.64 µM)
- MIC ([7]; GC4564, read-out: MINIMAL INHIBITORY CONCENTRATION MIC, Mouse Serum): 0.12 µg/mL (≈ 0.153 µM)
- MIC ([7]; GC4564, read-out: MINIMAL INHIBITORY CONCENTRATION MIC, Water): 0.5 µg/mL (≈ 0.64 µM)
- MIC ([8]; GC2236, read-out: MINIMAL INHIBITORY CONCENTRATION MIC, Human Serum): 8 µg/mL (≈ 10.2 µM)
- MIC ([8]; GC2236, read-out: MINIMAL INHIBITORY CONCENTRATION MIC, Mouse Serum): 1 µg/mL (≈ 1.28 µM)
- MIC ([8]; GC2236, read-out: MINIMAL INHIBITORY CONCENTRATION MIC, Water): 8 µg/mL (≈ 10.2 µM)
- MIC ([9]; GC2233, read-out: MINIMAL INHIBITORY CONCENTRATION MIC, Human Serum): 8 µg/mL (≈ 10.2 µM)
- MIC ([9]; GC2233, read-out: MINIMAL INHIBITORY CONCENTRATION MIC, Mouse Serum): 0.5 µg/mL (≈ 0.64 µM)
- MIC ([9]; GC2233, read-out: MINIMAL INHIBITORY CONCENTRATION MIC, Water): 8 µg/mL (≈ 10.2 µM)
- MIC ([10]; GC2214, read-out: MINIMAL INHIBITORY CONCENTRATION MIC, Human Serum): > 64 µg/mL
- MIC ([10]; GC2214, read-out: MINIMAL INHIBITORY CONCENTRATION MIC, Mouse Serum): 64 µg/mL (≈ 81.9 µM)
- MIC ([10]; GC2214, read-out: MINIMAL INHIBITORY CONCENTRATION MIC, Water): > 64 µg/mL
- MIC ([11]; GC6465, read-out: MINIMAL INHIBITORY CONCENTRATION MIC, Human Serum): 16 µg/mL (≈ 20.5 µM)
- MIC ([11]; GC6465, read-out: MINIMAL INHIBITORY CONCENTRATION MIC, Mouse Serum): 2 µg/mL (≈ 2.56 µM)
- MIC ([11]; GC6465, read-out: MINIMAL INHIBITORY CONCENTRATION MIC, Water): 64 µg/mL (≈ 81.9 µM)
- MIC ([12]; 20 h, read-out: Range of MIC, E. coli (Mouse Serum)): 0.5 to 1 µg/mL (≈ 0.64 to 1.28 µM)
- MIC ([12]; read-out: Minimum inhibitory concentration (MIC), E. coli (Human Serum)): 4 to 16 µg/mL (≈ 5.12 to 20.5 µM)
- MIC ([12]; read-out: Minimum inhibitory concentration (MIC), E. coli (water)): 4 to 16 µg/mL (≈ 5.12 to 20.5 µM)
- MIC ([12]; read-out: Range of MIC, E. coli (Water)): 4 to 16 µg/mL (≈ 5.12 to 20.5 µM)
- MIC ([13]; GC6467, read-out: MINIMAL INHIBITORY CONCENTRATION MIC, Human Serum): 4 µg/mL (≈ 5.12 µM)
- MIC ([13]; GC6467, read-out: MINIMAL INHIBITORY CONCENTRATION MIC, Mouse Serum): 0.5 µg/mL (≈ 0.64 µM)
- MIC ([13]; GC6467, read-out: MINIMAL INHIBITORY CONCENTRATION MIC, Water): 4 µg/mL (≈ 5.12 µM)
- MIC ([14]; GC1073, read-out: MINIMAL INHIBITORY CONCENTRATION MIC, Human Serum): 8 µg/mL (≈ 10.2 µM)
- MIC ([14]; GC1073, read-out: MINIMAL INHIBITORY CONCENTRATION MIC, Mouse Serum): 1 µg/mL (≈ 1.28 µM)
- MIC ([14]; GC1073, read-out: MINIMAL INHIBITORY CONCENTRATION MIC, Water): 4 µg/mL (≈ 5.12 µM)
- MIC ([15]; MRSA, read-out: Range of MIC, Staph (Mouse Serum)): 0.5 to 1 µg/mL (≈ 0.64 to 1.28 µM)
- MIC ([15]; MRSA, read-out: Range of MIC, Staph (Water)): 2 to 4 µg/mL (≈ 2.56 to 5.12 µM)
- MIC ([15]; read-out: Minimum inhibitory concentration (MIC), Staph (Human Serum)): 0.5 to 4 µg/mL (≈ 0.64 to 5.12 µM)
- MIC ([15]; read-out: Minimum inhibitory concentration (MIC), Staph (Water)): 2 to 4 µg/mL (≈ 2.56 to 5.12 µM)
- MIC ([16]; GC6469, read-out: MINIMAL INHIBITORY CONCENTRATION MIC, Human Serum): 2 µg/mL (≈ 2.56 µM)
- MIC ([16]; GC6469, read-out: MINIMAL INHIBITORY CONCENTRATION MIC, Mouse Serum): 0.5 µg/mL (≈ 0.64 µM)
- MIC ([16]; GC6469, read-out: MINIMAL INHIBITORY CONCENTRATION MIC, Water): 4 µg/mL (≈ 5.12 µM)
- MIC ([17]; GC4559, read-out: MINIMAL INHIBITORY CONCENTRATION MIC, Human Serum): 8 µg/mL (≈ 10.2 µM)
- MIC ([17]; GC4559, read-out: MINIMAL INHIBITORY CONCENTRATION MIC, Mouse Serum): 1 µg/mL (≈ 1.28 µM)
- MIC ([17]; GC4559, read-out: MINIMAL INHIBITORY CONCENTRATION MIC, Water): 8 µg/mL (≈ 10.2 µM)
- MIC ([18]; GC2270, read-out: MINIMAL INHIBITORY CONCENTRATION MIC, Human Serum): 4 µg/mL (≈ 5.12 µM)
- MIC ([18]; GC2270, read-out: MINIMAL INHIBITORY CONCENTRATION MIC, Mouse Serum): 0.5 µg/mL (≈ 0.64 µM)
- MIC ([18]; GC2270, read-out: MINIMAL INHIBITORY CONCENTRATION MIC, Water): 4 µg/mL (≈ 5.12 µM)
- MIC ([19]; GC2242, read-out: MINIMAL INHIBITORY CONCENTRATION MIC, Human Serum): 4 µg/mL (≈ 5.12 µM)
- MIC ([19]; GC2242, read-out: MINIMAL INHIBITORY CONCENTRATION MIC, Mouse Serum): 0.5 µg/mL (≈ 0.64 µM)
- MIC ([19]; GC2242, read-out: MINIMAL INHIBITORY CONCENTRATION MIC, Water): 4 µg/mL (≈ 5.12 µM)
- MIC ([20]; GC2235, read-out: MINIMAL INHIBITORY CONCENTRATION MIC, Human Serum): 4 µg/mL (≈ 5.12 µM)
- MIC ([20]; GC2235, read-out: MINIMAL INHIBITORY CONCENTRATION MIC, Mouse Serum): 0.5 µg/mL (≈ 0.64 µM)
- MIC ([20]; GC2235, read-out: MINIMAL INHIBITORY CONCENTRATION MIC, Water): 4 µg/mL (≈ 5.12 µM)
